Non-standard residues stand in square brackets, D forms with d. Residues, ends and D or L forms follow the SMILES beside them.
Assays:
[1] = tested on: α1-acid glycoprotein (AGP); conditions: Jiang et al.; read-out: KD of D3 to AGP; cited from earlier work
Excerpt: This had been expected before as all three D-peptides have a positive net charge and AGP is known to more strongly bind positively charged molecules as compared to HSA, which is known to bind rather acidic or neutral molecules. This had been observed previously for D3 in a similar manner. […] The unbound fractions (fu) of the th ...

Aβ1-42 = target: T1, Aβ1-42 (Homo sapiens, UniProt P05067); test: Aβ aggregation assay (Thioflavin T); format: biochemical; conditions: 10 μM Aβ1-42, 5 μM ThT, 20 mM sodium phosphate pH 7.4, 50 mM NaCl, 37°C, 70 h, triplicates, nonlinear regression; read-out: IC50, inhibition of Aβ1-42 aggregation into ThT-positive fibrils
T1 construct: Lyophilized Aβ1 - 42 was dissolved in the respective peptide solution; purchased Isoloid GmbH (recombinant) or Bachem AG (synthetic)
T1 sequence (P05067 672-713 limits assumed): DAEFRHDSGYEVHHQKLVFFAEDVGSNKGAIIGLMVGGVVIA
Method: The potencies of ANK6, tANK6, cANK6r, and D3 to inhibit Aβ1 - 42 aggregation was examined using Thioflavin T (ThT). For this purpose, a buffer solution composed of 20 mM sodium phosphate buffer (pH 7.4) including 50 mM sodium chloride, and 5μM ThT was prepared. Afterwards, ANK6, tANK6, cANK6r, or D3 were diluted in this solution, respectively, to final peptide concentrations between 0.3125 and 80μM (ANK6 and tANK6:0.3125, 0.625, 1.25, 2.5, 5, 10, 20μM; cANK6r: 1.25, 2.5, 5, 10, 20, 40, 80μM; D3:1.17, 2.34, 4.7, 9.4, 18.8, 37.5, 75μM).
The buffer solution only served as negative control (blank). Lyophilized Aβ1 - 42 was dissolved in the respective peptide solution to a final concentration of 10μM. D-peptide solutions with the highest concentration of the respective D-peptide containing all components, except of Aβ1 - 42, served as negative controls. Aβ1 - 42 solved in buffer solution without D-peptide served as positive control. 100μL of each solution were transferred into the wells (triplicates) of 96 well microplates (PS, black, non-binding from Greiner Bio-One, Germany) and fluorescence signals (excitationλ 440 nm, emissionλ 490 nm) were measured in a Polarstar Optima plate reader (BMG, Germany) at 37°C every 20 min for 70 h. Afterwards, the respective blank curves were subtracted from each aggregation curve to exclude background fluorescence. […] The half maximal inhibitory concentration (IC50 value) was determined by plotting the percent inhibition against the respective D-peptides’ concentrations. Datasets were fitted by nonlinear regression (one site – specific binding with Hill slope, GraphPad Prism 5).

IC50 (Aβ1-42): 7.2 µM
SMILES: CC(C)C[C@@H](NC(=O)[C@@H](CCCNC(=N)N)NC(=O)[C@H](NC(=O)[C@@H](CCCNC(=N)N)NC(=O)[C@H]1CCCN1C(=O)[C@H](N)CCCNC(=N)N)[C@H](C)O)C(=O)N[C@H](Cc1c[nH]cn1)C(=O)N[C@@H](C(=O)N[C@H](Cc1c[nH]cn1)C(=O)N[C@H](CCCNC(=N)N)C(=O)N[C@H](CC(N)=O)C(=O)N[C@H](CCCNC(=N)N)C(N)=O)[C@H](C)O [Peptide D3] (H-[dR][dP][dR][dT][dR][dL][dH][dT][dH][dR][dN][dR]-NH2)
Kd [1]: 1.8 µM
